“Also recorded” adds a separate entry of the source.
Key:
[1] = test system: Neuroblastoma cells (NG108-15 or F-11); assay: Effect of alkyl chain length on apoptotic potential of N-acylated compounds; type: cell-based; settings: 30% confluence, overnight, various concentrations
Protocol: (§1) Apoptosis was analyzed by DNA fragmentation, in situ terminal nucleotidyl transferase assay, and staining of condensed chromatin with Hoechst dye 33258 as described elsewhere (Ji et al., 1995; Bieberich et al., 1999) and as further outlined below. The degree of cell death was monitored by determination of the number of floating cells and cells stained with 0.4% trypan blue (Wang et al., 1999).
Neuroblastoma cells (NG108-15 or F-11) were grown to 30% confluence and incubated overnight with various concentrations of N-acyl compounds containing carbon chains with 8, 16 and 18 carbons, as well as C16 ethanolamine. The floating cells were harvested from the medium and the amount of cellular protein determined for calculation of dead cells. In addition, cell death was quantified by staining with trypan blue. The attached cells were stained with Hoechst dye 33258 for calculation of apoptotic cells with condensed chromatin. The number of apoptotic cells was determined by counting 100 stained cells in 20 different areas on tissue culture dishes from three independent experiments.
The effect of alkyl chain length on the apoptotic potential of S16 and two compounds differing only in the length of the alkyl chains, S8 (8 carbons)and S18 (18 carbons) was investigated as described in Methods. Also, the contribution of the second β-hydroxymethyl group of S16 was analyzed by comparison with the effect of C16 EA (C16 ethanolamine) on apoptosis. […] As such, the preferred length is 12-20 carbons.

T98 cells = assay: MTS proliferation assay of malignant glioma cells; type: cell-based, human; settings: T98, 5 days; S16 100 μM, S18 100 or 200 μM
Protocol: (§2) FIGS. 5A, 5B and 5C. MTS proliferation assay of in vitro brain tumor cells (malignant glioma) treated with structural analogues of ceramic. (•) control; (∘) S16, 100 μM; (▾) S18, 200 μM; (∇) S18, 100 μM. 5A: U87 cells (6 days); 5B: RT2 cells (6 days); 5C: T98 cells (5 days).
(§3) Murine neuroblastoma x rat glioma NG108-15 and murine neuroblastoma x rat dorsal root ganglion F-11 cells were kindly provided by Drs. Robert Ledeen (New Jersey School of Medicine, Newark, N.J.) and Glyn Dawson (University of Chicago, Chicago, Ill.), respectively. PC12 (rat adrenal pheochromocytoma, ATCC CRL 1721) cells were purchased from the American Type Culture Collection (Manassas, Va.). U87 and T98 human glioma cells were purchased from the American Type Culture Collection (Manassas, Va.). RT2 rat glioma cells were a gift.
(§4) CU87, T98 or RT2 malignant glioma cells (750/well) were plated onto 96-well plates and allowed to grow for 5-6 days in the presence of the ceramic analogues S16, S18 or B16, or control media. The CellTiter96® Aqueous One cell proliferation assay (Promega, Inc.) was used to quantify glioma cell proliferation. In this assay, the amount of formazan product (490 nm absorbance) made from the conversion of [3-(,5-dimethyl-2-yl)-5-(3-carboxymethoxyphenyl)-2-(4-sulfophenyl)-2H-tetrazolium, inner salt (MTS) by dehydrogenase enzymes of metabolically active cells is directly proportional to the number of living cells in culture.
(§5) The effect of the compounds S16, S18, and B16 on the ability of U87, RT2 and T98 glioma cells to proliferate in vitro was investigated as described in Methods and the results are presented in FIGS. 5A, 5B and 5C, respectively.

U87 cells = assay: MTS proliferation assay of malignant glioma cells; type: cell-based, human; settings: U87, 6 days; S16 100 μM, S18 100 or 200 μM
Protocol: as §2, §3, §4, §5

NG108-15 cells [2] = assay: Alteration of ceramic and sphingolipid levels (HPTLC) upon incubation with S16; type: cell-based, murine neuroblastoma x rat glioma
Excerpt: as §3
(§6) Lipids were prepared and analyzed by HPTLC as described previously (Freischutz et al., 1997).
(§7) NG108-15 or F-11 cells were incubated with 100 μM S16 overnight and endogenous ceramic analyzed by HPTLC of neutral lipids corresponding to 200 μg of cellular protein applied per lane. The HPTLC plate was developed in CHCl3/HOAc (9:1), v/v) and sphingolipids stained with cupric acetate/phosphoric acid reagent. Levels of ceramic, sphingomyelin, and neutral lipids were determined by densitometric analysis and comparison with various amounts of standard lipids. […] However, the concentration of ceramic in F-11 and NG108-15 cells at 20% confluence was elevated by about 50-80%.

F-11 cells [3] = assay: as above; type: cell-based, murine neuroblastoma x rat dorsal root ganglion
Excerpt: as §3, §6, §7

F-11 cells [4] = assay: Cell density-dependent DNA fragmentation (laddering); type: cell-based, murine neuroblastoma x rat dorsal root ganglion; settings: 100 μM S16, 15 hours; 30% confluent compared with 100% confluent cells
[5] = General toxicity during in vivo treatment; settings: up to a total of 200 mg/kg/day, treatment for 14 days
Protocol: (§8) The intraperitoneal administration of ceramic analogs started one day after grafting and was performed twice per day with 0.7 ml of 2 mM S16 or 4 mM S18 corresponding to 50-100 mg/kg per mouse. The compounds were predissolved in dimethylsulfoxide (DMSO) at a maximum concentration of 250 mM and then serially diluted to 2 mM S16 or 4 mM S18 in 20% bovine serum albumin (BSA), 500 μM sodium stearate, 0.9% sodium chloride.
(§9) Athymic mice were grafted with neuroblastoma tumors by subcutaneous injection and treated by intraperitoneal or intratumoral injection of S16 as described in Methods. Control mice received no treatment, or treatment with C-16 EA. […] Furthermore, the first measurable tumors appeared 2 days later in mice treated with S16 than in control mice.

[6] = test system: NG108-15 or F-11 neuroblastoma tumors; assay: In vivo tumor model in athymic mice; set-up: species or system athymic NU/NU mice
Protocol: A total of 1×10^6 NG108-15 or F-11 cells in 200 μl of phosphate buffered saline (PBS) was subcutaneously injected into each side of athymic NU/NU mice (Harlan) for generation of an in vivo brain tumor model in mouse skin. The resulting tumors were treated either intraperitoneally or by direct intratumor injection of ceramic analogs. Tumor growth rates and treatment results were the same within experimental error regardless of whether NG108-15 or F-11 cells were used.
Tumor growth was monitored by caliper measurement. The tumor volume was calculated by the formula: tumor size [mm^3]=(tumor width [mm])^2×tumor length [mm].
as §8
The intratumoral administration of ceramic analogs was initiated when tumor size was 30-50 mm^3 and consisted of daily injections of a 10-fold concentrated analog solution prepared as described above for S16 or of 2 mM B16 in 0.9% sodium chloride. The final concentration was calculated to be 200 μM when applied in a volume of 10% of the tumor size. Tumor volume was measured and calculated as described above.
as §9, with “mice. […]” for “mice.”
FIG. 9. […] The tumor volume was determined by caliper measurement and was about 4 ml for the mouse on the left side (untreated for 10 days) and 2 ml for the mouse on the right side (treated for 14 days).

NG108-15 cells [7] = assay: Dependence of S16 induced apoptosis on cell density; type: cell-based, murine neuroblastoma x rat glioma; settings: 100 μM S16 overnight; cell density below 20% or above 50%
Protocol: as §1
Cells were grown to varying degrees of confluence (100%=1.0×10^5 cells/cm^2) and then incubated overnight with 100 μM S16. The floating cells were harvested from the medium and the amount of cellular protein determined for calculation of dead cells. In addition, cell death was quantified by staining with trypan blue. The attached cells were stained with Hoechst dye 33258 for calculation of apoptotic cells with condensed chromatin. The number of apoptotic cells was determined by counting 100 stained cells in 20 different areas on tissue culture dishes from three independent experiments.
(§10) The dependence of the rate of S16 induced apoptosis of NG108-15 cells on cell density was investigated as described in methods and the results are given in FIG. 3. […] This observation was confirmed by determination of cell density-dependent DNA fragmentation (laddering) upon incubation with S16. Cells were incubated with 100 μM S16 for 15 hours.

PC12 cells = assay: Dependence of apoptosis on cell differentiation (Hoechst dye 33258 staining); type: cell-based, rat; settings: 24 hours; undifferentiated vs forskolin-differentiated PC12 cells
Excerpt: as §3, §1
The dependence of apoptosis upon differentiation of cells was analyzed by incubating undifferentiated PC12 cells and PC12 cells which had been induced to differentiate with S16 for 24 hours. Differentiation was induced by preincubation with 10 μM forskolin for 48 hrs. The extent of apoptosis was determined by staining with Hoechst dye 33258.
The apoptotic potential of S16 with respect to cell differentiation was investigated as described in Methods.

RT2 cells = assay: MTS proliferation assay of malignant glioma cells; type: cell-based, rat; settings: RT2, 6 days; S16 100 μM, S18 100 or 200 μM
Protocol: as §2, §3, §4, §5

NG108-15 cells [8] = assay: Cell density-dependent DNA fragmentation (laddering); type: cell-based, murine neuroblastoma x rat glioma; settings: 100 μM S16, 15 hours; 30% confluent compared with 100% confluent cells
Protocol: as §1, §10

[9] = 100 μM S16, 100% confluent cells
[10] = 100 μM S16 overnight, cells at 20% confluence

SMILES	apoptotic potential [1]	cellular proliferation (T98 cells)	cellular proliferation (U87 cells)	alteration of endogenous ceramic (NG108-15 cells [2]; [9])	alteration of the glycosphingolipid composition (NG108-15 cells [2]; 100 μM S16 overnight)	alteration of the level of sphingomyelin (NG108-15 cells [2]; 100 μM S16 overnight)	concentration of ceramic elevated (NG108-15 cells [2]; [10])	alteration of endogenous ceramic (F-11 cells [3]; [9])	alteration of the glycosphingolipid composition (F-11 cells [3]; 100 μM S16 overnight)	alteration of the level of sphingomyelin (F-11 cells [3]; 100 μM S16 overnight)	concentration of ceramic elevated (F-11 cells [3]; [10])	laddering of 200-base pair fragments (F-11 cells [4])	effects of general toxicity [5]	final size of the tumors relative to untreated or C16-EA treated mice ([6]; intraperitoneal or intratumoral injection)	delay of appearance of first measurable tumors versus control mice ([6]; mice treated with S16) [days]	degree of apoptosis (NG108-15 cells [7])	apoptosis (staining with Hoechst dye) (PC12 cells)	cellular proliferation (RT2 cells)	laddering of 200-base pair fragments (NG108-15 cells [8])	tumor volume (caliper measurement) ([6]; F-11 grafts, intra-peritoneal 0.7 ml of 4 mM twice a day for 14 days, untreated mouse about 4 ml at 10 days) [mL]
CCCCCCCCCCCCCCCC(=O)NCCO [C16 EA, N-palmitoyl ethanolamine, reference compound]	almost no apoptosis																			
CCCCCCCCCCCCCCCC(=O)NC(CO)CO [S16, N-palmitoyl serinol]	optimal	marked decrease in cellular proliferation	marked decrease in cellular proliferation	no significant alteration	no detectable alteration	no detectable alteration	50-80%	no significant alteration	no detectable alteration	no detectable alteration	50-80%	increased markedly	No effects of general toxicity were observable	30-35%	2	markedly decreased	only undifferentiated cells showed the typical staining	marked decrease in cellular proliferation	increased markedly	
CCCCCCCCCCCCCCCC(=O)N(CCO)CCO [B16, N,N-bis(2-hydroxyethyl) palmitamide]		marked decrease in cellular proliferation; also recorded: virtually eliminating the proliferation	marked decrease in cellular proliferation; also recorded: virtually eliminating the proliferation															marked decrease in cellular proliferation; also recorded: virtually eliminating the proliferation		
CCCCCCCC/C=C\CCCCCCCC(=O)NC(CO)CO [S18, N-oleoyl serinol]	optimal	marked decrease in cellular proliferation; also recorded: virtually eliminating the proliferation	marked decrease in cellular proliferation; also recorded: virtually eliminating the proliferation															marked decrease in cellular proliferation; also recorded: virtually eliminating the proliferation		~2
